Consider 2 molecules from article PMC4350332 (Oncotarget, 2014).

In one series the target is PDK-1 (Homo sapiens, UniProt Q15118). The series is described as follows: PDK-1 fluorescence polarization assay (fluorescein-labelled ATP site probe). Type of series: binding. The arrangement: PDK-1: residues 30-436; made in house; host or cells: E. coli BL21. Particulars: titration with a probe concentration of 10 nM; read-out: Kd of PDK-1 protein with the probe. The method, then: carbamoyl]-2-(6-hydroxy-3-oxo-3H-xanthen-9-yl)benzoic acid), which binds to the ATP site of PDK resulting in an increase in anisotropy.
The HSP-90ß FP assay was conducted as previously described.
A general note: Fluorescence polarisation rises when a labelled molecule tumbles more slowly, as on binding a larger partner.

The next series has as its system PDK. The following applies: stated in discussion, no own experiment; cited from earlier work.

The structures appear in SMILES notation. pKd: −log10 of the molar value.

Sequence of PDK-1 (Q15118 30-436): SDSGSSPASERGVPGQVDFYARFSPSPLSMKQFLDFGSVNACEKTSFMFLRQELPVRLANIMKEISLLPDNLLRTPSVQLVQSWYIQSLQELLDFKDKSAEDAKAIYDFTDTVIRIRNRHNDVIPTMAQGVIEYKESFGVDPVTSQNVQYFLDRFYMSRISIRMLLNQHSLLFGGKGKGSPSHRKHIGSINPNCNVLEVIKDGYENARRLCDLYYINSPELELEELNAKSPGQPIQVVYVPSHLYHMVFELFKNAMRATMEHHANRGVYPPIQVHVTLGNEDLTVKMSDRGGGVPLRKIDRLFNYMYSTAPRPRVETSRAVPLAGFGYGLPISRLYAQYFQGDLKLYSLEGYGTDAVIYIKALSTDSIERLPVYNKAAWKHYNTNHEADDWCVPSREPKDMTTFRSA

For orientation: pKd means −log10 of the Kd, conventionally taken in molar units. As to `CCNC(=O)c1noc(-c2cc(Cl)c(O)cc2O)c1-c1ccc(CNC(=O)c2ccc(-c3c4ccc(=O)cc-4oc4cc(O)ccc34)c(C(=O)O)c2)cc1` [VER-160364, 5-[({4-[5-(5-chloro-2,4-dihydroxyphenyl)-3-(ethylcarbamoyl)-1,2-oxazol-4-yl]phenyl}methyl)carbamoyl]-2-(6-hydroxy-3-oxo-3H-xanthen-9-yl)benzoic acid], the pKd on PDK-1 was 7.52.

In the case of `O=C(O)C(Cl)Cl` [DCA], the “Concentrations required to observe modulation of glycolytic activity and cytotoxicity” value with PDK was 5000 to 20000 µM.
